One compound from patent US12029774B2, “Açai berry seed extract, fractions of açai berry seed extracts, process for obtaining açai berry seed extracts, pharmaceutical and food compositions and method for the treatment of diseases or disorders with açai berry seed extract” (Power Seed Comércio e Representações Ltda, priority 2018, dated 2024) can be followed below.

The subject of the assay is mesenteric vascular bed. Put plainly: In vitro arteries relaxation test (perfused mesenteric vascular bed pre-contracted with noradrenaline). On the set-up: species or system Wistar mice. The conditions noted are these: inferred from HPLC-MSMS/CCD of EHA and fraction 4 with FIGS. 6a and 6e; component not tested alone. The procedure: The vasodilatory activity of EHA and/or its fractions was determined and quantified by ID50 (Inhibitory Dose at 50%) in preparation of the mesenteric arterial bed of male and adult Wistar mice, in vitro. After anesthesia (thiopental, […] ip), a broad laparotomy is performed to the mice in order to expose the entire mesenteric circulation. The mesenteric artery was isolated and cannulated with cannula and polyethylene. Immediately 1 to 2 ml of Krebs nourishing solution with heparin was injected in order to avoid mesenteric intravascular coagulation. The mesenteric vascular bed was dissected, placed in a heated tub and perfused with Krebs solution at 37° C., by peristaltic pump (4 ml/minute). The perfusion pressure was recorded continuously in computer, through program (PowerLab 4/30). After a period of equilibration, it was added (30 μM) noradrenaline in the Krebs fluid in order to raise the vascular tone of the mesenteric vascular bed. Once the noradrenaline constant pressure response was obtained in the mesenteric vascular bed, increasing doses of EHA and/or fractions in the mesenteric vascular bed were injected. Perfusion pressure reductions induced by extracts and/or fractions were analyzed by the computer and expressed as reduction percent of noradrenaline-induced pressure response. […]

Consider `Oc1cc(O)c2c(c1)O[C@H](c1ccc(O)c(O)c1)[C@H](O)[C@H]2c1c(O)cc(O)c2c1O[C@H](c1ccc(O)c(O)c1)[C@H](O)C2` [procyanidin B2], for which the “activity of extract component inferred from chromatogram and artery relaxation test” value was “compound with the highest activity”.
